According to patent US20250388604A1, “Compounds and Their Use as PDE4 Activators” (Mironid Limited, priority 2022, published 2025):

What follows are compounds tested on m-IMCD3 cells (assay: Inhibition of PGE2-stimulated in vitro cyst formation in m-IMCD3 cells). Details: 3 μM; mean cyst area, 100% for (DMSO + PGE2) and 0% for DMSO control; 6 days of culture.
Type: cell-based, mouse
Method in brief: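 Mean cyst area after 6 days, expressed relative to DMSO+PGE2 (100%) and DMSO alone (0%), from z-stack images. Mouse m-IMCD3 spheroids grew in collagen I/Matrigel gels and received PGE2 (100 nM final) with test compound (0.1% DMSO) starting 18–24 h post-plating, media refreshed at day 2 or 3.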

With `CC(O)(C(=O)N1CCc2nc(N3C4CCC3CNC4)sc2C1)C1CCCC1` (single isomer, unassigned) [Example 255, 1-(2-(3,8-diazabicyclo[3.2.1]octan-8-yl)-6,7-dihydrothiazolo[5,4-c]pyridin-5(4H)-yl)-2-cyclopentyl-2-hydroxypropan-1-one] the “% Cyst area after incubation with 3 μM test compound” value was −5%.

Same assay, conditions: Mus musculus, mIMCD3, 144 h, 3 μM; mean cyst area, 100% for (DMSO + PGE2) and 0% for DMSO control; 6 days of culture; read-out: % Cyst area after incubation with 3 μM test compound

Point of comparison: `O=C(c1cccc(OC(F)F)c1)N1CCc2nc(N3C4CCC3CNC4)sc2C1` [Example 206, (2-(3,8-diazabicyclo[3.2.1]octan-8-yl)-6,7-dihydrothiazolo[5,4-c]pyridin-5(4H)-yl)(3-(difluoromethoxy)phenyl)methanone], activity at 3 µM 6%. Against it:
- O=C(c1ccccc1Cl)N1CCc2nc(N3C4CCC3CNC4)sc2C1 [Example 210, (2-(3,8-diazabicyclo[3.2.1]octan-8-yl)-6,7-dihydrothiazolo[5,4-c]pyridin-5(4H)-yl)(2-chlorophenyl)methanone] — higher, 11%
- N#Cc1ccccc1OCC(=O)N1CCc2nc(N3C4CCC3CNC4)sc2C1 [Example 167, 2-(2-(2-(3,8-diazabicyclo[3.2.1]octan-8-yl)-6,7-dihydrothiazolo[5,4-c]pyridin-5(4H)-yl)-2-oxoethoxy)benzonitrile] — higher, 19%
- COc1ccccc1C(=O)N1CCc2nc(N3C4CCC3CNC4)sc2C1 [Example 197, (2-(3,8-diazabicyclo[3.2.1]octan-8-yl)-6,7-dihydrothiazolo[5,4-c]pyridin-5(4H)-yl)(2-methoxyphenyl)methanone] — lower, 4%
- CC(OC1CCCC1)C(=O)N1CCc2nc(N3C4CCC3CNC4)sc2C1 (centres unmarked) [Example 169, 1-(2-(3,8-diazabicyclo[3.2.1]octan-8-yl)-6,7-dihydrothiazolo[5,4-c]pyridin-5(4H)-yl)-2-(cyclopentyloxy)propan-1-one] — lower, -9%
- O=C(c1cc2ccccc2[nH]1)N1CCc2nc(N3C4CCC3CNC4)sc2C1 [Example 188, (2-(3,8-diazabicyclo[3.2.1]octan-8-yl)-6,7-dihydrothiazolo[5,4-c]pyridin-5(4H)-yl)(1H-indol-2-yl)methanone] — lower, 3%
- COc1cc(C)ccc1C(=O)N1CCc2nc(N3C4CCC3CNC4)sc2C1 [Example 219, (2-(3,8-diazabicyclo[3.2.1]octan-8-yl)-6,7-dihydrothiazolo[5,4-c]pyridin-5(4H)-yl)(2-methoxy-4-methylphenyl)methanone] — higher, 11%
- COCc1ccccc1C(=O)N1CCc2nc(N3C4CCC3CNC4)sc2C1 [Example 214, (2-(3,8-diazabicyclo[3.2.1]octan-8-yl)-6,7-dihydrothiazolo[5,4-c]pyridin-5(4H)-yl)(2-(methoxymethyl)phenyl)methanone] — higher, 54%
- O=C(c1cccc2c1OC(F)(F)O2)N1CCc2nc(N3C4CCC3CNC4)sc2C1 [Example 233, (2-(3,8-diazabicyclo[3.2.1]octan-8-yl)-6,7-dihydrothiazolo[5,4-c]pyridin-5(4H)-yl)(2,2-difluorobenzo[d][1,3]dioxol-4-yl)methanone] — lower, -2%
- CCN1CCN(c2nc3c(s2)CN(C(=O)CC(C)(C)C)CC3)CC1 [Example 299, 1-(2-(4-ethylpiperazin-1-yl)-6,7-dihydrothiazolo[5,4-c]pyridin-5(4H)-yl)-3,3-dimethylbutan-1-one] — lower, 3%
- O=C(c1cccc2cccnc12)N1CCc2nc(N3C4CCC3CNC4)sc2C1 [Example 237, (2-(3,8-diazabicyclo[3.2.1]octan-8-yl)-6,7-dihydrothiazolo[5,4-c]pyridin-5(4H)-yl)(quinolin-8-yl)methanone] — higher, 37%
- CCN1CC2CCC(C1)N2c1nc2c(s1)CN(S(=O)(=O)Cc1ccccc1)CC2 [Example 289, 5-(benzylsulfonyl)-2-(3-ethyl-3,8-diazabicyclo[3.2.1]octan-8-yl)-4,5,6,7-tetrahydrothiazolo[5,4-c]pyridine] — lower, -7%

Same assay, conditions: Mus musculus, mIMCD3, 144 h, 10 μM; mean cyst area, 100% for (DMSO + PGE2) and 0% for DMSO control; 6 days of culture; read-out: % Cyst area after incubation with 10 μM test compound

Point of comparison: `CC(C)(Oc1ccccc1)C(=O)N1CCc2nc(N3C4CCC3CNC4)sc2C1` [Example 30, 1-(2-(3,8-diazabicyclo[3.2.1]octan-8-yl)-6,7-dihydrothiazolo[5,4-c]pyridin-5(4H)-yl)-2-methyl-2-phenoxypropan-1-one], activity at 10 µM 1%. Against it:
- O=C(N1CCc2nc(N3C4CCC3CNC4)sc2C1)C(F)(F)C1CCCC1 [Example 24, 1-(2-(3,8-diazabicyclo[3.2.1]octan-8-yl)-6,7-dihydrothiazolo[5,4-c]pyridin-5(4H)-yl)-2-cyclopentyl-2,2-difluoroethan-1-one] — lower, 0%
- O=C(COc1ccc(F)cc1)N1CCn2nc(N3C4CCC3CNC4)cc2C1 [Example 72, 1-(2-(3,8-diazabicyclo[3.2.1]octan-8-yl)-6,7-dihydropyrazolo[1,5-a]pyrazin-5(4H)-yl)-2-(4-fluorophenoxy)ethan-1-one] — lower, -3%
- CN(C(=O)N1CCc2nc(N3C4CCC3CNC4)sc2C1)C1CCCC1 [Example 62, 2-(3,8-diazabicyclo[3.2.1]octan-8-yl)-N-cyclopentyl-N-methyl-6,7-dihydrothiazolo[5,4-c]pyridine-5(4H)-carboxamide] — the same, 1%
- CC(C)(C)C(=O)N1CCc2nc(N3C4CCC3CNC4)sc2C1 [Example 65, 1-(2-(3,8-diazabicyclo[3.2.1]octan-8-yl)-6,7-dihydrothiazolo[5,4-c]pyridin-5(4H)-yl)-2,2-dimethylpropan-1-one] — lower, -2%
- O=C(CC1CCCC1)N1CCc2nc(N3CCN[C@H](CO)C3)sc2C1 [Example 116, (S)-2-cyclopentyl-1-(2-(3-(hydroxymethyl)piperazin-1-yl)-6,7-dihydrothiazolo[5,4-c]pyridin-5(4H)-yl)ethan-1-one] — higher, 55%
- CC1(NC(=O)N2CCc3nc(N4C5CCC4CNC5)sc3C2)CCC1 [Example 124, 2-(3,8-diazabicyclo[3.2.1]octan-8-yl)-N-(1-methylcyclobutyl)-6,7-dihydrothiazolo[5,4-c]pyridine-5(4H)-carboxamide] — lower, -12%
- CC1(C)CCN(C(=O)N2CCc3nc(N4C5CCC4CNC5)sc3C2)C1 [Example 121, (2-(3,8-diazabicyclo[3.2.1]octan-8-yl)-6,7-dihydrothiazolo[5,4-c]pyridin-5(4H)-yl)(3,3-dimethylpyrrolidin-1-yl)methanone] — lower, 0%
- CC1(C)CCCC1C(=O)N1CCc2nc(N3C4CCC3CNC4)sc2C1 (centres unmarked) [Example 37, (2-(3,8-diazabicyclo[3.2.1]octan-8-yl)-6,7-dihydrothiazolo[5,4-c]pyridin-5(4H)-yl)(2,2-dimethylcyclopentyl)methanone] — lower, -2%
- O=C(CCc1ccccc1)N1CCc2nc(N3C4CCC3CNC4)sc2C1 [Example 5, 1-(2-(3,8-diazabicyclo[3.2.1]octan-8-yl)-6,7-dihydrothiazolo[5,4-c]pyridin-5(4H)-yl)-3-phenylpropan-1-one] — lower, -5%
- CN1CC2CCC(C1)N2c1cc2n(n1)CCN(C(=O)NC1CCC(F)(F)CC1)C2 [Example 85, N-(4,4-difluorocyclohexyl)-2-(3-methyl-3,8-diazabicyclo[3.2.1]octan-8-yl)-6,7-dihydropyrazolo[1,5-a]pyrazine-5(4H)-carboxamide] — lower, -2%
- CC(Oc1ccccc1)C(=O)N1CCc2nc(N3C4CCC3CNC4)sc2C1 (centres unmarked) [Example 23, 1-(2-(3,8-diazabicyclo[3.2.1]octan-8-yl)-6,7-dihydrothiazolo[5,4-c]pyridin-5(4H)-yl)-2-phenoxypropan-1-one] — lower, 0%
- COc1cc(F)ccc1CCC(=O)N1CCc2nc(N3C4CCC3CNC4)sc2C1 [Example 147, 1-(2-(3,8-diazabicyclo[3.2.1]octan-8-yl)-6,7-dihydrothiazolo[5,4-c]pyridin-5(4H)-yl)-3-(4-fluoro-2-methoxyphenyl)propan-1-one] — higher, 9%
- CC1(C)CC(CC(=O)N2CCc3nc(N4C5CCC4CNC5)sc3C2)C1 [Example 119, 1-(2-(3,8-diazabicyclo[3.2.1]octan-8-yl)-6,7-dihydrothiazolo[5,4-c]pyridin-5(4H)-yl)-2-(3,3-dimethylcyclobutyl)ethan-1-one] — lower, -10%
- N#CC(C(=O)N1CCc2nc(N3C4CCC3CNC4)sc2C1)C1CCCC1 (centres unmarked) [Example 152, 3-(2-(3,8-diazabicyclo[3.2.1]octan-8-yl)-6,7-dihydrothiazolo[5,4-c]pyridin-5(4H)-yl)-2-cyclopentyl-3-oxopropanenitrile] — higher, 4%
- O=C(CC1CCC(F)(F)CC1)N1CCc2nc(N3C4CCC3CNC4)sc2C1 [Example 2, 1-(2-(3,8-diazabicyclo[3.2.1]octan-8-yl)-6,7-dihydrothiazolo[5,4-c]pyridin-5(4H)-yl)-2-(4,4-difluorocyclohexyl)ethan-1-one] — higher, 2%
- CC(C)CC(=O)N1CCc2nc(N3C4CCC3CNC4)sc2C1 [Example 9, 1-(2-(3,8-diazabicyclo[3.2.1]octan-8-yl)-6,7-dihydrothiazolo[5,4-c]pyridin-5(4H)-yl)-3-methylbutan-1-one] — lower, 0%
- CC(C)[C@@H](C)C(=O)N1CCc2nc(N3C4CCC3CNC4)sc2C1 [Example 19, (2R)-1-(2-(3,8-diazabicyclo[3.2.1]octan-8-yl)-6,7-dihydrothiazolo[5,4-c]pyridin-5(4H)-yl)-2,3-dimethylbutan-1-one] — lower, -2%
- CN1CCN(c2nc3c(s2)CN(C(=O)CC2CCC(F)(F)CC2)CC3(C)C)CC1 [Example 104, 2-(4,4-difluorocyclohexyl)-1-(7,7-dimethyl-2-(4-methylpiperazin-1-yl)-6,7-dihydrothiazolo[5,4-c]pyridin-5(4H)-yl)ethan-1-one] — lower, 0%
